Experimental data published in patent US10562878B2, “Cycloalkylamines as monoamine reuptake inhibitors” (Sunovion Pharmaceuticals Inc., priority 2006, dated 2020).
pIC50: −log10 of the molar value. Read-outs that look alike come from different tables or passages of the source.

Legend:
mice = assay: Mouse tail suspension test; type: in vivo; settings: 30 mg/kg PO
Rats = assay: Rat forced swim test; type: in vivo
[1] = biological target: human dopamine transporter (Homo sapiens (Human), UniProt Q01959); assay: Dopamine functional uptake assay, recombinant human transporter in CHO-K1 or HEK293 cells; type: cell-based; settings: read-out: hDAT IC50
[2] = biological target: human serotonin transporter (Homo sapiens (Human), UniProt P31645); assay: Serotonin functional uptake assay, recombinant human transporter in HEK-293 cells; type: cell-based; settings: Human serotonin transporter uptake; read-out: hSERT IC50
[3] = biological target: T1, Norepinephrine Transporter (NET) sites in mouse brain (Mus musculus (Mouse), UniProt O55192); settings: mice, 60 min after treatment
[4] = biological target: 5-HT Transporter (SERT) sites in mouse brain (Mus musculus (Mouse), UniProt Q60857); assay: Ex vivo [3H] citalopram binding to SERT sites in mouse brain after oral dosing; settings: mice, 60 min after treatment; for receptor occupancy at 1 mg/kg / receptor occupancy at 3 mg/kg / receptor occupancy at 10 mg/kg / receptor occupancy at 30 mg/kg: mouse
[5] = biological target: DA Transporter (DAT) sites in mouse brain (Mus musculus (Mouse), UniProt Q61327); assay: Ex vivo [3H] WIN 35428 binding to DAT sites in mouse brain after oral dosing; settings: mice, 60 min after treatment; for receptor occupancy at 1 mg/kg / receptor occupancy at 3 mg/kg / receptor occupancy at 10 mg/kg / receptor occupancy at 30 mg/kg: mouse
[6] = biological target: T1, Norepinephrine Transporter (NET) sites in mouse brain; assay: in vivo; settings: po, read-out: NET % Transporter Occupancy

Chain of human serotonin transporter (P31645 whole entry): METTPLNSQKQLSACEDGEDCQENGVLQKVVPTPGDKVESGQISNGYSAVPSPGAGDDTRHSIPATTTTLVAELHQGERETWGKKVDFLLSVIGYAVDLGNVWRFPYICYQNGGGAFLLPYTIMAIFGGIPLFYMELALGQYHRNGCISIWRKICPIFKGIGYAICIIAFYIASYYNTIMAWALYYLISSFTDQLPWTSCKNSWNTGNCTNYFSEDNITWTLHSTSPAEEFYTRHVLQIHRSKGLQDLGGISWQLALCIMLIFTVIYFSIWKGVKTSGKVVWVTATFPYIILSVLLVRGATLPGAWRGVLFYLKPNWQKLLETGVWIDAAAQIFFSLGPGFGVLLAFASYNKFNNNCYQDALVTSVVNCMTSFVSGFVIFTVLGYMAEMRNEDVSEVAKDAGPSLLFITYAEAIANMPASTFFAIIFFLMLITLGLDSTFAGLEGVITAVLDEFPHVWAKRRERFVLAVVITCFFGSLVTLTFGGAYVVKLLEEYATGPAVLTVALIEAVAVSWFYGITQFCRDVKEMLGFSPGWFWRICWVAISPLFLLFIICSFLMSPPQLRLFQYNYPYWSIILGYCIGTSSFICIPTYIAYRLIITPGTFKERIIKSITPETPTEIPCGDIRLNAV
Chain of human dopamine transporter (Q01959 whole entry): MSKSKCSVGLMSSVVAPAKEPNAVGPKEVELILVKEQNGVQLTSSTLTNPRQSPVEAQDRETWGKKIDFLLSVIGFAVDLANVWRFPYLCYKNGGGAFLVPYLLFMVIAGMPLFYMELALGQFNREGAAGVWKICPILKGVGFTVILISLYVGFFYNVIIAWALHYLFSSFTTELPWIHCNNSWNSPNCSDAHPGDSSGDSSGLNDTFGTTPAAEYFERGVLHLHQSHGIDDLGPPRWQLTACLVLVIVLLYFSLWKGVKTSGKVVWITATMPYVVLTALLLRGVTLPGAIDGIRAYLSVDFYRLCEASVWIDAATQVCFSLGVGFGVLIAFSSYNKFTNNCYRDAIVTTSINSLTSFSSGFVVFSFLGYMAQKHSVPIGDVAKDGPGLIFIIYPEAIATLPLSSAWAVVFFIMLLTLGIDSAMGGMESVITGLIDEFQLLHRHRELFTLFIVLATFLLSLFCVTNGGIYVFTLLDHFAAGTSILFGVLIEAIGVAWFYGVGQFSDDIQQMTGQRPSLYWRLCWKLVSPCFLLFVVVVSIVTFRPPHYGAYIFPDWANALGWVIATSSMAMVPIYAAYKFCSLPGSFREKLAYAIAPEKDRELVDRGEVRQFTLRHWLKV

| SMILES | pIC50 [1] | pIC50 [2] | NET Mean Specific Binding ± S.E.M. ([3]; 1 mg/kg PO) [dpm] | NET Mean Specific Binding ± S.E.M. ([3]; 3 mg/kg PO) [dpm] | NET Mean Specific Binding ± S.E.M. ([3]; 10 mg/kg PO) [dpm] | NET Mean Specific Binding ± S.E.M. ([3]; 30 mg/kg PO) [dpm] | SERT Mean Specific Binding ± S.E.M. ([4]; 1 mg/kg PO) [dpm] | SERT Mean Specific Binding ± S.E.M. ([4]; 3 mg/kg PO) [dpm] | SERT Mean Specific Binding ± S.E.M. ([4]; 10 mg/kg PO) [dpm] | SERT Mean Specific Binding ± S.E.M. ([4]; 30 mg/kg PO) [dpm] | receptor occupancy at 1 mg/kg ([4]; 1 mg/kg PO) [%] | receptor occupancy at 3 mg/kg ([4]; 3 mg/kg PO) [%] | receptor occupancy at 10 mg/kg ([4]; 10 mg/kg PO) [%] | receptor occupancy at 30 mg/kg ([4]; 30 mg/kg PO) [%] | DAT Mean Specific Binding ± S.E.M. ([5]; 3 mg/kg PO) [dpm] | DAT Mean Specific Binding ± S.E.M. ([5]; 10 mg/kg PO) [dpm] | DAT Mean Specific Binding ± S.E.M. ([5]; 30 mg/kg PO) [dpm] | receptor occupancy at 1 mg/kg ([5]; 1 mg/kg PO) [%] | receptor occupancy at 3 mg/kg ([5]; 3 mg/kg PO) [%] | receptor occupancy at 10 mg/kg ([5]; 10 mg/kg PO) [%] | further results |
| --- | --- | --- | --- | --- | --- | --- | --- | --- | --- | --- | --- | --- | --- | --- | --- | --- | --- | --- | --- | --- | --- |
| CNCC1(c2ccc3ccccc3c2)CCCCC1 [Compound 93, N-methyl-1-(1-(naphthalen-2-yl)cyclohexyl)methanamine] | – | – | – | – | – | – | – | – | – | – | – | – | – | – | – | – | – | – | – | – | Mouse Tail Suspension Mean Immobility Time ± S.E.M. (mice): 162.0 ± 8.1; Rat Forced Swim Climbing (Means ± S.E.M.) (Rats; 3 mg/kg PO): 9.0 ± 1.3; Rat Forced Swim Immobility (Means ± S.E.M.) (Rats; 3 mg/kg PO): 44.5 ± 2.5; Rat Forced Swim Swimming (Means ± S.E.M.) (Rats; 3 mg/kg PO): 6.5 ± 1.6; Rat Forced Swim Climbing (Means ± S.E.M.) (Rats; 10 mg/kg PO): 12.8 ± 2.2; Rat Forced Swim Immobility (Means ± S.E.M.) (Rats; 10 mg/kg PO): 41.4 ± 2.8; Rat Forced Swim Swimming (Means ± S.E.M.) (Rats; 10 mg/kg PO): 6.9 ± 1.3; Rat Forced Swim Climbing (Means ± S.E.M.) (Rats; 30 mg/kg PO): 22.2 ± 3.5; Rat Forced Swim Immobility (Means ± S.E.M.) (Rats; 30 mg/kg PO): 25.8 ± 5.4; Rat Forced Swim Swimming (Means ± S.E.M.) (Rats; 30 mg/kg PO): 12.0 ± 2.1 |
| CO[C@@H]1CCC[C@@](CN)(c2ccc(Cl)c(Cl)c2)C1 [Compound 192] | 5.71 | < 5.00 | – | – | – | – | – | – | – | – | – | – | – | – | – | – | – | – | – | – | – |
| CNCC1(c2ccc(Cl)c(Cl)c2)CCC(C)(O)CC1 (centres unmarked) [Compound 276, 4-(3,4-dichlorophenyl)-1-methyl-4-((methylamino)methyl)cyclohexanol] | 7.15 | – | 1602 ± 51 | 1631 ± 92 | 1553 ± 27 | 1138 ± 59 | 3743 ± 199 | 3685 ± 292 | 3092 ± 207 | 1558 ± 169 | 12 | 14 | 28 | 64 | 16312 ± 2396 | 15879 ± 2265 | 10397 ± 931 | -21 | -9 | -6 | receptor occupancy at 30 mg/kg ([5]; 30 mg/kg PO): 31%; receptor occupancy at 1 mg/kg [6]: -4%; receptor occupancy at 3 mg/kg [6]: -6%; receptor occupancy at 10 mg/kg [6]: -1%; receptor occupancy at 30 mg/kg [6]: 26% |
| CN(C)CC1(c2ccc(Cl)c(Cl)c2)CCC(C)(O)CC1 (centres unmarked) [Compound 277, 4-(3,4-dichlorophenyl)-4-((dimethylamino)methyl)-1-methylcyclohexanol] | 7.39 | – | 950 ± 46 | 824 ± 30 | 533 ± 25 | 294 ± 42 | 1508 ± 86 | 1491 ± 75 | 1416 ± 43 | 1384 ± 101 | -6 | -5 | 0 | 3 | 34136 ± 4104 | 33230 ± 2807 | 31743 ± 4406 | 17 | 21 | 23 | DAT Mean Specific Binding ± S.E.M. ([5]; 1 mg/kg PO): 35827 ± 2302 dpm; receptor occupancy at 30 mg/kg ([5]; 30 mg/kg PO): 26%; receptor occupancy at 1 mg/kg [6]: 6%; receptor occupancy at 3 mg/kg [6]: 18%; receptor occupancy at 10 mg/kg [6]: 47%; receptor occupancy at 30 mg/kg [6]: 71% |
| CNC[C@]1(c2ccc(Cl)c(Cl)c2)CC[C@H](O)CC1 [Compound 287, cis-4-(3,4-dichlorophenyl)-4-((methylamino)methyl)cyclohexanol] | 6.72 | 5.98 | – | – | – | – | – | – | – | – | – | – | – | – | – | – | – | – | – | – | – |
| CCN(C)[C@H]1CC[C@@](CN)(c2ccc(Cl)c(Cl)c2)CC1 [Compound 290, trans-4-(aminomethyl)-4-(3,4-dichlorophenyl)-N-ethyl-N-methylcyclo-hexanamine] | 5.86 | 6.00 | – | – | – | – | – | – | – | – | – | – | – | – | – | – | – | – | – | – | – |
